Several values for one entry are separate records, joined by “and”; a condition that tells them apart may be missing. Equal values may be shown once.
Legend:
[1] = tested on: Sprague Dawley rats; assay: Bleomycin-induced lung fibrosis model, inhalation administration; format: in vivo, rat; details: Pirfenidone 350 mg/kg; individual animals, Fig 4
Description: On day 1 of the study, bleomycin hydrochloride was administered to 8–9-week-old Sprague Dawley rats at a final concentration of 1.5 mg ml^−1 in sodium chloride solution (dosed volume at 1.0 ml per kg) by intratracheal atomization (once in the morning and once in the afternoon) to build the pulmonary fibrosis model.
A German PARI compression atomizer (PARI TurboBOY) was set at an aerosol flow rate of 9–10 l min^−1. […] The dilution flow of aerosol was set at 0 l min^−1, and the pumping-out flow from the chamber was set at 6 l min^−1. The fluid rate was set at 0.5 ml min^−1 for test article replenishment. Before nebulization, aerosol-generation conditions were validated three times.
And these parameters were recorded in real time during the experiment.
For concentration assessment, a glass fiber filter membrane (φ = 37 mm) was used to measure aerosol concentrations during drug administration from approximately day 8 to day 28. Sampling was taken at 5 min (±1 min) after drug administration from a random exposure port. […] Aerosol particle size parameters were calculated with the system software: median mass aerodynamic diameter (MMAD), geometric standard deviation, fine particle fraction (percentage of fine particles with MMAD < 5 μm), etc.
On day 29 and before euthanasia, animals were anesthetized with chloral hydrate (90 mg ml^−1, 5 ml per kg, i.p.). Necks were cut longitudinally at the middle to isolate trachea, and a catheter was intubated into the trachea toward the tail direction and fixed with a suture thread. The anesthetized animals were placed into the plethysmography chamber, to which the airway was connected. The AniRes2005 animal lung function-analysis system was used to assess parameters including FVC, airway resistance and pulmonary compliance. The ventilator respiration rate was set to 65 beats per minute; the respiration ratio was set to 20:10; the negative pressure controller was set to 30 cm H2O. FVC detection was set to pressure-control mode, while pressure was set to 30 cm H2O. The startup mode was selected to automatically detect at the end of breath, and the ‘Start’ button was clicked to passively inhale and then turned to exhale after reaching the set pressure value. Next, the ‘Stop’ button was clicked to complete an FVC detection. Each animal was evaluated for FVC at least five times. The final result was the mean value after the maximum and minimum data were excluded for analysis.

[2] = tested on: C57BL/6 mice; assay: Bleomycin-induced lung fibrosis model, combination with pirfenidone; format: in vivo, mouse; details: PFD 60 BID
Description: (§1) Mice received bleomycin on day 1 at a dose of 0.66 mg per kg (equivalent to 1 U per kg), in a volume of 50 μl by intratracheal administration, or received saline (sham group). On day 7, dosing with the corresponding compounds was started. The vehicle group (group 1) was treated with 0.5% methylcellulose BID. […] On days 5 and 21, lung function measurement was performed. On day 28, all animals were killed, and blood and tissue samples were collected along with BALF.
(§2) Lung function was measured according to the HDB standard protocol. Expiratory time, relaxation time, peak expiratory flow and peak inspiratory flow were collected and used to calculate Penh data.
Lung sections were cut at a thickness of 4 μm, dried in an oven for 1 h and stained with M&T using our standard protocol. Briefly, sections were stained with Weigert’s iron hematoxylin working solution for 10 min, stained in Biebrich scarlet–acid fuchsin solution for 10 min, differentiated in phosphomolybdic–phosphotungstic acid solution for 5 min or until the collagen was not red, transferred to aniline blue solution, stained for 1 min and then dedifferentiated in 1% acetic acid solution. Next, sections were dehydrated and coverslipped for subsequent image analysis. For image analysis of collagen deposition, Masson’s trichrome-stained slides were scanned by using Aperio ScanScope Model CS2 (Leica) at ×200 magnification. Images were then opened with HALO. Using the pen tool, the whole left lung section was selected as an annotation layer. The area occupied by blue collagen fibers was measured using the pen tool. The percentage of fibrosis (positive areas) in the selected annotation was then calculated with the program. Fibrosis was expressed as a percentage per lung section.
Sections (4 μm thick) were placed on slides, and, after overnight drying, paraffin was removed with xylene. Next, sections were placed in a graded ethanol series and immersed in distilled water. After heat-induced citrate antigen (pH 6.0) unmasking, sections were immersed in 3% hydrogen peroxide solution for 5 min. […] Next, secondary antibodies conjugated to HRP were added. For image analysis of fibrosis, stained sections were used and scanned with the Aperio CS2 Scanner machine. Images were then opened with HALO. Using the pen tool, the whole left lung section was selected as an annotation layer. The bronchus was excluded in the annotation layer. The area occupied by collagen fibers was measured using the ‘Area Quantification v2.1.3’ module. The percentage of positive areas in the selected annotation was then calculated using the program.

[3] = tested on: C57BL/6 mice; assay: LPS-induced acute lung injury model; format: in vivo, mouse; details: G3 Dex 10mpk BID; individual animals, Fig 3E-F; listed as Dex;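 note: bronchoalveolar lavage fluid sampled one day after intratracheal LPS challenge, cytokines measured by ELISA in supernatant, lymphocytes counted on Diff-Quick stained cytospin smears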
Description: One day before the first experimental day, animals were grouped. All mice were anesthetized with Zoletil–xylazine (50 mpk and 10 mpk, i.p.). At 0 h, mice received LPS at a dose of 50 μl as 50 μg per mouse (groups 2–5, n = 8 per group) or 50 μl saline (group 1, n = 8 per group) by intratracheal administration. […] In the dexamethasone group (group 5), animals were treated with dexamethasone both 2 h before and 4 h after the LPS challenge. Twenty-four hours after the LPS challenge, animals were euthanized, and BALF samples were collected.
(§3) Mice were first anesthetized with Zoletil–xylazine (50 mpk and 10 mpk, i.p.). Next, a 1.5–2-cm longitudinal incision was made on the ventral side of the neck to expose the trachea by blunt dissection, and curved forceps were placed underneath the trachea. A 10–12-cm piece of suture was then threaded underneath the trachea using forceps. The ends of the suture were then pulled cranially to ‘stretch’ the trachea toward the surgeon. A 20-G needle was then used to poke a hole in the trachea as close to the larynx as possible. A 22-G blunt stainless steel needle connected to PE tubing was placed in the hole and inserted approximately 5–8 mm into the trachea. The cannula was secured in the trachea by tying the suture around it with an overhand knot. A 1-ml syringe containing 0.4 ml saline was gently pushed forward and backward three times to recover BALF fluid. BALF was transferred into empty tubes and stored on ice. This process was repeated twice with 0.3 ml saline for a total volume of 1 ml.
(§4) Total cell numbers were counted with a standard hemocytometer by mixing 20 μl BALF with 20 μl trypan blue. Cytospins were prepared by cytocentrifugation using Cytospins at 106g for 5 min, and then smears of BALF cells were stained with Diff-Quick stain. Cell differentiation was performed by counting at least 400 cells using standard hemocytologic criteria to classify them as alveolar macrophages or monocytes, neutrophils, eosinophils or lymphocytes. The rest of the BALF fluid was centrifuged, and supernatants were collected and stored at −80 °C for cytokine, chemokine and total protein analysis.
(§5) From the collected BALF, concentrations of cytokines were measured from mice in groups 2–7 killed on day 28. Mouse BALF cytokines and chemokines were measured using the ELISA Analysis Kit (Sinobest Bio). Mouse BALF soluble collagen was measured using the Soluble Collagen kit (Biocolor). Mouse lung hydroxyproline content was measured using the Hydroxyproline Assay Kit (Njjcbio).

[4] = tested on: C57BL/6 mice; assay: Unilateral ureteral obstruction (UUO) kidney fibrosis model; details: SB525334 100 mg/kg QD, individual animals, Fig 5C-D;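 note: mice had the left ureter ligated on day 0, received treatment from day 0 through day 14 and were killed on day 14 for kidney analysis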
Description: The surgery took place on two separate days. Mice were divided into two slots based on their body weight before the day of the surgery. On day 0 (day of surgery), UUO surgery was performed after administration of three types of mixed anesthetic agents (medetomidine, midazolam, butorphanol). Mice were shaved at the incision site, the abdomen was cut open, and the left ureter was exteriorized and ligated with 4-0 silk sutures at two points. Finally, the peritoneum and the skin were closed with sutures.
Treatments were applied from day 0 to day 14. And animals were killed on day 14, and blood and tissue samples were collected.
Frozen kidney samples were processed by an alkaline acid hydrolysis method as follows. […] Next, AC buffer (2.2 M acetic acid and 0.48 M citric acid, 400 μl) was added to the samples, followed by centrifugation to collect the supernatant. […] The samples were then mixed with Ehrlich’s solution (400 μl) and heated at 65 °C for 20 min to develop color. After samples were cooled on ice and centrifuged to remove precipitates, the optical density of each supernatant was measured at 560 nm. Hydroxyproline concentrations were calculated from the hydroxyproline standard curve. Kidney hydroxyproline contents were expressed as μg per mg protein, and the amount of protein was determined using the BCA Protein Assay Kit (Thermo Fisher Scientific).
At the end of the UUO study, the left kidney was fixed in Bouin’s solution and embedded in paraffin. Kidney sections were stained using picro-Sirius red solution (Waldeck). To quantify the interstitial fibrosis area, brightfield images in the corticomedullary region were captured using a digital camera (DFC295) at 200-fold magnification, and the positive areas in five fields per section were measured using ImageJ software (National Institute of Health).
Paraffin sections were deparaffinized and hydrophilized with xylene, 100–70% alcohol series and RO water, and then circles were drawn around the kidney sections. […] After washing with PBS, kidney sections were treated with PBS with Tween-20 (PBST), followed by incubation with Block Ace (DS Pharma Biomedical) at room temperature for 10 min. The sections were incubated with the primary antibody (anti-collagen I) at 4 °C overnight. After washing with PBS, kidney sections were treated with PBST, followed by incubation with secondary antibody at room temperature for 30 min. After washing with PBS, kidney sections were fixed with 1% glutaraldehyde solution at room temperature for 1 min. After washing with RO water, kidney sections were treated with PBST and then colored using a chromogenic substrate (Simple Stain DAB, Nichirei Bioscience). After washing with RO water, kidney sections were immersed in an eightfold-diluted hematoxylin solution for 1 min and washed with RO water immediately. […] For scoring of IHC analyses, brightfield images were captured using a digital camera (DFC295) at 200-fold magnification, and the score in one field per section was determined.

[5] = tested on: C57BL/6 mice; assay: Bleomycin-induced lung fibrosis model; format: in vivo, mouse; details: individual animals
Description: as §1, §2, §3, §4, §5
Left lung lobes were removed from each mouse and fixed in 10% NBF solution, embedded in paraffin and processed to obtain 4-μm sections for staining with H&E. H&E-stained slides were scanned using an Aperio ScanScope Model CS2 (Leica) at ×200 magnification. Images were then opened in the HALO Plus 5 workstation (version 2.3, Indica Labs) program. Using the pen annotation tool, the whole-lung section was selected as an annotation layer. The area of vessels was defined as background using the exclusion drawing tool. The total inflammation area was quantified by selecting the dark blue inflammation cells using the pen annotation tool manually. The percentage of H&E staining (inflammation area/total area of the lung) in the selected annotation was then calculated using the program.
Masson’s trichrome staining was conducted using a ready-to-use kit (Trichrome Stain (Masson) Kit, HT15, Sigma-Aldrich) as described by the manufacturer.
Lung sections were cut at a thickness of 4 μm, dried in an oven for 1 h and stained with M&T using our standard protocol.

[6] = tested on: cyclin-dependent kinase (CDK)2; details: 0.1 μM; cited from earlier work
[7] = G5 Nintedanib 60mpk QD, Fig 3B-C

## Cc1ccc(=O)n(-c2ccccc2)c1 [PFD, reference compound]
[1]
  Cdyn: 0.3225 mL/cmH2O and 0.3123 mL/cmH2O and 0.3091 mL/cmH2O and 0.2795 mL/cmH2O and 0.2995 mL/cmH2O and 0.311 mL/cmH2O and 0.2781 mL/cmH2O and 0.3041 mL/cmH2O and 0.3215 mL/cmH2O and 0.2768 mL/cmH2O and 0.3388 mL/cmH2O and 0.3313 mL/cmH2O
  FVC: 11.834 and 11.621 and 10.998 and 9.152 and 10.235 and 10.576 and 10.334 and 10.683 and 12.105 and 9.791 and 11.908 and 11.529
  HE staining for inflammatory infiltration: 7.178 and 19.4033 and 79.9063 and 22.6394 and 11.901 and 21.4024 and 18.4629 and 10.7655 and 14.7132 and 7.539 and 10.0121 and 11.9271
  MT staining for fibrosis: 10.0525 and 23.681 and 70.2292 and 22.9771 and 14.4065 and 16.7608 and 19.0061 and 11.0741 and 14.7041 and 7.51 and 11.2668 and 15.3486
  Modified Ashcroft Score: 2.42 and 3.08 and 3.92 and 2.83 and 3.17 and 2.75 and 2 and 2.08 and 2.33 and 2.5
  RL: 0.1938 cmH2O and 0.2018 cmH2O and 0.2011 cmH2O and 0.2233 cmH2O and 0.2084 cmH2O and 0.2023 cmH2O and 0.2267 cmH2O and 0.2069 cmH2O and 0.196 cmH2O and 0.2278 cmH2O and 0.184 cmH2O and 0.1887 cmH2O
[2]
  Modified Ashcroft Score: 4.5 and 5.25 and 5 and 4.75 and 5.5 and 4.25

## C[C@@H]1C[C@H]2[C@@H]3CCC4=CC(=O)C=C[C@]4(C)[C@@]3(F)[C@@H](O)C[C@]2(C)[C@@]1(O)C(=O)CO [Dexamethasone, reference compound]
[3]
  IL-1β: 90.1547 and 104.645 and 85.96 and 83.2907 and 79.4774 and 99.688 and 85.1973 and 77.1894
  IL-4: 38.428 and 35.2518 and 35.7056 and 41.1504 and 38.1255 and 36.613 and 38.8817 and 44.3266
  IL-6: 27.9 and 24.66 and 28.93 and 26.28 and 30.56 and 33.5 and 31.73 and 30.41
  IL-7: 25.06 and 25.43 and 30.03 and 28.19 and 29.85 and 32.24 and 34.63 and 29.29
  Lymphocytes: 11000 and 9300 and 5750 and 9600 and 6400 and 32400 and 4950 and 10750
  TNF-alpha: 362.89 and 452.57 and 397.89 and 371.64 and 437.26 and 448.2 and 351.95 and 301.64

## Cc1cccc(-c2[nH]c(C(C)(C)C)nc2-c2ccc3nccnc3c2)n1 [SB525334, reference compound]
[4]
  Collagen Type 1 score: 1
[4]; 100 mg/kg
  Fibrosis area (sirius red positive area): 0.79 and 1.13 and 0.97 and 0.36 and 0.56 and 0.41 and 0.76 and 0.48
  Kidney hydroxyproline: 3.88 and 4.04 and 4.13 and 2.51 and 3.1 and 4.54 and 4.91

## COC(=O)c1ccc2c(c1)NC(=O)/C2=C(\Nc1ccc(N(C)C(=O)CN2CCN(C)CC2)cc1)c1ccccc1 [Nintedanib, reference compound]
[5]; 60mpk QD
  HE staining (inflammation area): 0.45 and 0.15 and 0.63 and 0.09 and 1.34 and 0.26 and 0.72 and 0.83 and 1.48 and 0.9
  IL-1beta in BALF: 168.67 and 169.31 and 175.04 and 171.22 and 152.11 and 187.14 and 147.65 and 164.21
  IL-6 in BALF: 147.17 and 136.31 and 119.43 and 143.55 and 137.52 and 155.01 and 125.46 and 138.12 and 158.63
  monocytes, cell count in BALF: 87000 and 128700 and 121600 and 174600 and 58800 and 161100 and 39800 and 37000 and 99000 and 75600
  neutrophils, cell count in BALF: 0
[5]; [7]
  Lung function (Penh): 0.5478 and 2.603 and 0.6904 and 2.472 and 0.7934 and 0.9276 and 0.6395 and 0.7208 and 1.0675 and 0.6757 and 1.195 and 2.42 and 0.41
  Masson Trichrome's staining: 0.55 and 0.4 and 0.78 and 0.03 and 1.61 and 0.54 and 0.87 and 0.56 and 1.52 and 0.39
  Modified Ashcroft Score: 3.5 and 2.5 and 1.75 and 1.25 and 2.25 and 3.25 and 0.5
  collagen I: 2.73 and 0.02 and 0.37 and 0.05 and 0.16 and 0.9 and 0.94 and 0.03 and 0.07
  α-SMA: 0.19 and 0.04 and 0.06 and 0.17 and 0.42 and 0.08 and 0.45 and 0.15 and 0.22 and 0.14

## OC1CCC(Oc2cccc3cnc(Nc4ccc5nc[nH]c5c4)nc23)CC1 (stereo not drawn) [NCB-0846]
[6]
  inhibition: > 80%

Source: PMC11738990, “A small-molecule TNIK inhibitor targets fibrosis in preclinical and clinical models” (Nature Biotechnology, 2024)
